System: 958667-338-R-J2-PDC tumor spheroids viability
Assay: Anticancer human tumor 958667-338-R-J2-PDC patient-derived colon adenocarcinoma cell line growth inhibition [PI3K]
Conditions: spheroids with HUVEC and MSC; for IC50: curve of first compound; for viability, T/C: stronger effect = lower value
How it was run: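 Complex 3D spheroids (cancer cells + endothelial HUVEC + mesenchymal stem cells); drug pairs of targeted agent x inavolisib/alpelisib/duvelisib/copanlisib; half-log series from ~Cmax, max 10 microM if Cmax unknown; endpoint viability.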

[1] = second compound 0.00316 µM, first compound 0.0316 µM
[2] = second compound 0.00316 µM, first compound 0.1 µM
[3] = second compound 0.00316 µM, first compound 0.316 µM
[4] = second compound 0.00316 µM, first compound 1 µM
[5] = second compound 0.00316 µM, first compound 3.16 µM
[6] = second compound 0.00316 µM, first compound 10 µM
[7] = second compound 0.01 µM, first compound 0.0316 µM
[8] = second compound 0.01 µM, first compound 0.1 µM
[9] = second compound 0.01 µM, first compound 0.316 µM
[10] = second compound 0.01 µM, first compound 1 µM
[11] = second compound 0.01 µM, first compound 3.16 µM
[12] = second compound 0.01 µM, first compound 10 µM
[13] = second compound 0.0316 µM, first compound 0.0316 µM
[14] = second compound 0.0316 µM, first compound 0.1 µM
[15] = second compound 0.0316 µM, first compound 0.316 µM
[16] = second compound 0.0316 µM, first compound 1 µM
[17] = second compound 0.0316 µM, first compound 3.16 µM
[18] = second compound 0.0316 µM, first compound 10 µM
[19] = second compound 0.1 µM, first compound 0.0316 µM
[20] = second compound 0.1 µM, first compound 0.1 µM
[21] = second compound 0.1 µM, first compound 0.316 µM
[22] = second compound 0.1 µM, first compound 1 µM
[23] = second compound 0.1 µM, first compound 3.16 µM
[24] = second compound 0.1 µM, first compound 10 µM
[25] = second compound 0.316 µM, first compound 0.0316 µM
[26] = second compound 0.316 µM, first compound 0.1 µM
[27] = second compound 0.316 µM, first compound 0.316 µM
[28] = second compound 0.316 µM, first compound 1 µM
[29] = second compound 0.316 µM, first compound 3.16 µM
[30] = second compound 0.316 µM, first compound 10 µM
[31] = second compound 1 µM, first compound 0.0316 µM
[32] = second compound 1 µM, first compound 0.1 µM
[33] = second compound 1 µM, first compound 0.316 µM
[34] = second compound 1 µM, first compound 1 µM
[35] = second compound 1 µM, first compound 3.16 µM
[36] = second compound 1 µM, first compound 10 µM
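Note: spheroids exposed to compounds for seven days before readout.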

`CC1(C)CCC(CN2CCN(c3ccc(C(=O)NS(=O)(=O)c4ccc(NCC5CCOCC5)c([N+](=O)[O-])c4)c(Oc4cnc5[nH]ccc5c4)c3)CC2)=C(c2ccc(Cl)cc2)C1` + COc1c(OCCCN2CCOCC2)ccc2c3n(c(=NC(=O)c4cnc(N)nc4)nc12)CCN3 was tested, and the IC50 (second compound 0.00316 µM) was 6.52 µM, the IC50 (second compound 0.01 µM) was 5.73 µM and the IC50 (second compound 0.0316 µM) was 5.21 µM. For the same molecule, the IC50 (second compound 0.1 µM) was 3.76 µM, the IC50 (second compound 0.316 µM) was under 0.0316 µM and the IC50 (second compound 1 µM) was under 0.0316 µM. It also gave a viability, T/C [1] of 76.5%, a viability, T/C [2] of 96.3% and a viability, T/C [3] of 80.3%. It also gave a viability, T/C [4] of 98.8%, a viability, T/C [5] of 103% and a viability, T/C [6] of 25.6%. It also gave a viability, T/C [7] of 71.8%, a viability, T/C [8] of 85.9% and a viability, T/C [9] of 72.5%. The viability, T/C [10] was 76.6%, the viability, T/C [11] was 75.8% and the viability, T/C [12] was 25.9%. The viability, T/C [13] was 77.6%, the viability, T/C [14] was 66.2% and the viability, T/C [15] was 61.6%. The viability, T/C [16] was 69%, the viability, T/C [17] was 80.6% and the viability, T/C [18] was 22.6%. The viability, T/C [19] was 58%, the viability, T/C [20] was 53.4% and the viability, T/C [21] was 48.8%. The viability, T/C [22] was 53.9%, the viability, T/C [23] was 69.6% and the viability, T/C [24] was 11.9%. The viability, T/C [25] was 45.8%, the viability, T/C [26] was 42.3% and the viability, T/C [27] was 33.9%. The viability, T/C [28] was 33.5%, the viability, T/C [29] was 32.5% and the viability, T/C [30] was 4.13%. The viability, T/C [31] was 19.7%, the viability, T/C [32] was 15.1% and the viability, T/C [33] was 19%. For the same molecule, the viability, T/C [34] was 21.9%, the viability, T/C [35] was 18.2% and the viability, T/C [36] was 2.25%.
In the case of `C[C@@H](NC(=O)c1ncnc(N)c1Cl)c1ncc(C(=O)Nc2cc(C(F)(F)F)c(Cl)cn2)s1` + COc1c(OCCCN2CCOCC2)ccc2c3n(c(=NC(=O)c4cnc(N)nc4)nc12)CCN3, the IC50 (second compound 0.00316 µM) is reported as over 10 µM, the IC50 (second compound 0.01 µM) is reported as over 10 µM and the IC50 (second compound 0.0316 µM) is reported as over 10 µM. For the same molecule, the IC50 (second compound 0.1 µM) was over 10 µM, the IC50 (second compound 0.316 µM) was under 0.0316 µM and the IC50 (second compound 1 µM) was under 0.0316 µM. The viability, T/C [1] was 96.1%, the viability, T/C [2] was 88.5% and the viability, T/C [3] was 107%. It also gave a viability, T/C [4] of 110%, a viability, T/C [5] of 116% and a viability, T/C [6] of 66.7%. The viability, T/C [7] was 96.3%, the viability, T/C [8] was 96.8% and the viability, T/C [9] was 111%. It also gave a viability, T/C [10] of 89.5%, a viability, T/C [11] of 69.9% and a viability, T/C [12] of 72.1%. For the same molecule, the viability, T/C [13] was 78.9%, the viability, T/C [14] was 88.3% and the viability, T/C [15] was 77.5%. It also gave a viability, T/C [16] of 84.3%, a viability, T/C [17] of 86.1% and a viability, T/C [18] of 76.2%. It also gave a viability, T/C [19] of 62.2%, a viability, T/C [20] of 70.8% and a viability, T/C [21] of 68.1%. It also gave a viability, T/C [22] of 82.1%, a viability, T/C [23] of 83.2% and a viability, T/C [24] of 59.8%. It also gave a viability, T/C [25] of 34.3%, a viability, T/C [26] of 37.2% and a viability, T/C [27] of 44.1%. It also gave a viability, T/C [28] of 42%, a viability, T/C [29] of 57.3% and a viability, T/C [30] of 34.2%. The viability, T/C [31] was 20.4%, the viability, T/C [32] was 19.5% and the viability, T/C [33] was 20.1%. The viability, T/C [34] was 20.9%, the viability, T/C [35] was 15.2% and the viability, T/C [36] was 5.92%.
